Patent US9938273B2 (Plexxikon Inc., priority 2015, dated 2018)

Experiments:
[1] = system: MOLM-14 F691L cells, FLT3 ITD and FLT3 F691L; assay: Cell proliferation assay (CellTiter-Glo), MOLM-14 F691L; format: cell-based; settings: Homo sapiens, 72 h, 3d-Growth, GMean
Source text: The FLT3 inhibitors may be assessed using the MOLM-14, Acute Myeloid Leukemia cell line that endogenously expresses FLT3 ITD or derivatives of the human FLT3 AML cell line which acquired the D835Y (activation loop) of F691L (gatekeeper) mutation after selection in escalating doses of the FLT3 Inhibitor AC220. FLT3 inhibitors may also be assessed using cells that are engineered to express mutant FLT3. For engineered cells, murine Ba/F3 cells were transfected with full-length FLT3 ITD/D835Y mutations. The parental BA/F3 cells are dependent upon Interleukin-3 (IL-3) for survival, and introduction of the FLT3 constructs rendered these cells dependent upon FLT3 kinase activity when cultured in the absences of IL-3. Engineered BA/F3 cell growth assays can be performed in either the […] of IL-3, to assess the compound inhibition of FLT3 or to detect the presence of off-target activity, respectively. Inhibitors of FLT3 kinase activity reduce or eliminate the FLT3 oncogenic signaling, resulting in reduced cell proliferation. This inhibition is measured as a function of compound concentration to asses IC50 values.
Cell lines used in proliferation assays are as follows in Table 3:
Cells were seeded at 1×10^4 cells per well of a 96 well cell culture plate in 50 μl of cell culture medium. Compounds were dissolved in DMSO, typically at a concentration of 0.5 mM and were serially diluted 1:3 for a total of eight points and added to the cells to final concentrations of […], 0.0041, 0.0014 and 0.00046 μM in 100 μl cell culture medium (final concentration 0.2% DMSO). […] The cells were incubated at 37° C., 5% CO2 for three days. CellTiter-Glo Buffer (Promega Cell Viability Assay catalog #G7573) and substrate were equilibrated to room temperature, and enzyme/substrate Recombinant Firefly Luciferase/Beetle Luciferin was reconstituted. The cell plates were equilibrated to room temperature for 30 minutes, then lysed by addition of an equivalent volume of the Celltiter-Glo Reagent. The plate was mixed for 10 minutes on a plate shaker to lyse the cells. The plates were read on a Tecan M1000 using Luminescence protocol modified to read 0.1 s per well. The luminescence reading assesses the ATP content, which correlates directly with cell number such that the reading as a function of compound concentration was used to determine the IC50 value.

[2] = target: T1, FLT3-D835Y (Homo sapiens, UniProt P36888, D835Y); assay: AlphaScreen kinase assay with recombinant enzyme, FLT3-D835Y; format: biochemical; settings: 8pt, GMean
T1 construct: purchased Invitrogen PV3967
T1 sequence (P36888 27-993 D835Y): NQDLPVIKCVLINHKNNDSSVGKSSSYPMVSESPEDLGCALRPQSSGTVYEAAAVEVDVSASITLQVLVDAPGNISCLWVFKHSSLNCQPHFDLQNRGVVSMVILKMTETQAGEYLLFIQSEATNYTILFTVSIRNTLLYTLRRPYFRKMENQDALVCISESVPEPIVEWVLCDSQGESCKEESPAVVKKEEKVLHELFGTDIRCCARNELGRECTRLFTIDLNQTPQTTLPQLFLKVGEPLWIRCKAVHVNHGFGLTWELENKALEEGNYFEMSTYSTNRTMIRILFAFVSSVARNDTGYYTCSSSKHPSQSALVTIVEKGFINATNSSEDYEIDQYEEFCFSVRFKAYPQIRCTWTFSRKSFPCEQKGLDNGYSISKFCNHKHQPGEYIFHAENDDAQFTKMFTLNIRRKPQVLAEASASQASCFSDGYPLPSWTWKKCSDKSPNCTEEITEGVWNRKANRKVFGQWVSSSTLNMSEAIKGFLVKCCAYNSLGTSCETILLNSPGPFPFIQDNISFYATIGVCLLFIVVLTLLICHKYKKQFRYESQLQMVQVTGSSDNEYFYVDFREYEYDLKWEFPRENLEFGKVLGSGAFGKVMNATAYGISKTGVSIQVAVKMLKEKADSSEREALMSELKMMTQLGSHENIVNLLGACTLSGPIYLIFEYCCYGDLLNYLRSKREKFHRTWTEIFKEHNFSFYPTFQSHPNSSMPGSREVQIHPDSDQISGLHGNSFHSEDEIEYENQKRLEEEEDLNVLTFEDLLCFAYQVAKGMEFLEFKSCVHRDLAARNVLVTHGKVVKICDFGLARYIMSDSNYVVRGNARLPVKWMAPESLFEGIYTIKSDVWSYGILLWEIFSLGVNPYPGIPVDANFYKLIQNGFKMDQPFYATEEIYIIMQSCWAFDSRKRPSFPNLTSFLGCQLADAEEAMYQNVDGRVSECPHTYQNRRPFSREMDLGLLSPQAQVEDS
Summary of the method: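 Recombinant kinase phosphorylates biotinylated poly(Glu4-Tyr) peptide (30 nM final); streptavidin donor and anti-phosphotyrosine PY20 acceptor beads (10 μg/mL final) give a 580 nm proximity signal on 680 nm excitation. IC50 determinations used a final concentration of 10 μM for FLT3-D835Y/FLT3-ITD and 100 μM for c-KIT.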

IC50 [1] [µM] | IC50 [2] [µM] | SMILES
0.0001 to 10 | 0.0001 to 10 | CN[C@@H]1CCN(C(=O)c2ccc(-c3cnc4[nH]c(-c5ccccc5)cc4c3)s2)C1 [Compound P-0106, [(3R)-3-(methylamino)pyrrolidin-1-yl]-[5-(2-phenyl-1H-pyrrolo[2,3-b]pyridin-5-yl)-2-thienyl]methanone]
0.0001 to 10 | 0.0001 to 10 | O=S(=O)(NC1CC1)c1cccc(-c2cnc3[nH]c(-c4ccccc4)cc3c2)n1 [Compound P-0109, N-cyclopropyl-6-(2-phenyl-1H-pyrrolo[2,3-b]pyridin-5-yl)pyridine-2-sulfonamide]
0.0001 to 10 | 0.0001 to 10 | N#CC1(NC(=O)c2cccc(-c3cnc4[nH]c(-c5ccccc5)cc4c3)n2)CC1 [Compound P-0111, N-(1-cyanocyclopropyl)-6-(2-phenyl-1H-pyrrolo[2.3-b]pyridin-5-yl]pyridine-2-carboxamide]
0.0001 to 10 | 0.0001 to 10 | O=C(c1cccc(-c2cnc3[nH]c(-c4cnn(CC(F)(F)F)c4)cc3c2)n1)N1CCC(F)(F)C1 [Compound P-0112, (3,3-difluoropyrrolidin-1-yl)-[6-[2-[1-(2,2,2-trifluoroethyl)pyrazol-4-yl]-1H-pyrrolo[2,3-b]pyridin-5-yl]-2-pyridyl]methanone]
0.0001 to 10 | 0.0001 to 10 | CC(C)(C#N)CNC(=O)c1cccc(-c2cnc3[nH]c(-c4cnn(CC(F)(F)F)c4)cc3c2)n1 [Compound P-0113, N-(2-cyano-2-methyl-propyl)-6-[2-[1-(2,2,2-trifluoroethyl)pyrazol-4-yl]-1H-pyrrolo[2,3-b]pyridin-5-yl]pyridine-2-carboxamide]
0.0001 to 10 | 0.0001 to 10 | N#CC1(NC(=O)c2cccc(-c3cnc4[nH]c(-c5ccccc5)cc4c3)n2)CCC1 [Compound P-0114, N-(1-cyanocyclobutyl)-6-(2-phenyl-1H-pyrrolo[2,3-b]pyridin-5-yl)pyridine-2-carboxamide]
0.0001 to 10 | 0.0001 to 10 | N#CC1(F)CCN(C(=O)c2cccc(-c3cnc4[nH]c(-c5ccccc5)cc4c3)n2)C1 (stereo not drawn) [Compound P-0115, 3-fluoro-1-[6-(2-phenyl-1H-pyrrolo[2,3-b]pyridin-5-yl)pyridine-2-carbonyl]pyrrolidine-3-carbonitrile]
0.0001 to 10 | 0.0001 to 10 | CC(C)(C#N)NC(=O)c1cccc(-c2cnc3[nH]c(-c4ccccc4)cc3c2)n1 [Compound P-0118, N-(1-cyano-1-methyl-ethyl)-6-(2-phenyl-1H-pyrrolo[2,3-b]pyridin-5-yl)pyridine-2-carboxamide]
0.0001 to 10 | 0.0001 to 10 | N#C[C@@H]1CCN(C(=O)c2cccc(-c3cnc4[nH]c(-c5ccccc5)cc4c3)n2)C1 [Compound P-0122, (3R)-1-[6-(2-phenyl-1H-pyrrolo[2,3-b]pyridin-5-yl)pyridine-2-carbonyl]pyrrolidine-3-carbonitrile]
0.0001 to 10 | 0.0001 to 10 | CC(C)(C#N)CNC(=O)c1cccc(-c2cnc3[nH]c(C4=CCCCC4)cc3c2)n1 [Compound P-0123, N-(2-cyano-2-methyl-propyl)-6-[2-(cyclohexen-1-yl)-1H-pyrrolo[2,3-b]pyridin-5-yl]pyridine-2-carboxamide]
0.0001 to 10 | 0.0001 to 10 | CC1(C)CC=C(c2cc3cc(-c4cccc(C(=O)N5CCC(C#N)C5)n4)cnc3[nH]2)CC1 (stereo not drawn) [Compound P-0131, 1-[6-[2-(4,4-dimethylcyclohexen-1-yl)-1H-pyrrolo[2,3-b]pyridin-5-yl]pyridine-2-carbonyl]pyrrolidine-3-carbonitrile]
0.0001 to 10 | 0.0001 to 10 | N#CC1CCN(C(=O)c2cccc(-c3cnc4[nH]c(C5=CCOCC5)cc4c3)n2)C1 (stereo not drawn) [Compound P-0132, 1-[6-[2-(3,6-dihydro-2H-pyran-4-yl)-1H-pyrrolo[2,3-b]pyridin-5-yl]pyridine-2-carbonyl]pyrrolidine-3-carbonitrile]
 | 0.0001 to 10 | CC(C)(C#N)CNC(=O)c1cccc(-c2cnc3[nH]c(-c4ccnc(C5CC5)c4)cc3c2)n1 [Compound P-0152, N-(2-cyano-2-methyl-propyl)-6-[2-(2-cyclopropyl-4-pyridyl)-1H-pyrrolo[2,3-b]pyridin-5-yl]pyridine-2-carboxamide]
 | 0.0001 to 10 | COc1cc(-c2cc3cc(-c4cccc(C(=O)NCC(C)(C)C#N)n4)cnc3[nH]2)ccn1 [Compound P-0154, N-(2-cyano-2-methyl-propyl)-6-[2-(2-methoxy-4-pyridyl)-1H-pyrrolo[2,3-b]pyridin-5-yl]pyridine-2-carboxamide]
 | 0.0001 to 10 | Cn1cc(-c2cc3cc(-c4cccc(C(=O)NCC(C)(C)C#N)n4)cnc3[nH]2)ccc1=O [Compound P-0155, N-(2-cyano-2-methyl-propyl)-6-[2-(1-methyl-6-oxo-3-pyridyl)-1H-pyrrolo[2,3-b]pyridin-5-yl]pyridine-2-carboxamide]
 | 0.0001 to 10 | CC(C)(C#N)CNC(=O)c1cccc(-c2cnc3[nH]c(C4=CCSCC4)cc3c2)n1 [Compound P-0159, N-(2-cyano-2-methyl-propyl)-6-[2-(3,6-dihydro-2H-thiopyran-4-yl)-1H-pyrrolo[2,3-b]pyridin-5-yl]pyridine-2-carboxamide]
 | 0.0001 to 10 | Cc1cc(-c2cc3cc(-c4cccc(C(=O)NC(C)(C)C#N)n4)cnc3[nH]2)cnn1 [Compound P-0163, N-(1-cyano-1-methyl-ethyl)-6-[2-(6-methylpyridazin-4-yl)-1H-pyrrolo[2,3-b]pyridin-5-yl]pyridine-2-carboxamide]
 | 0.0001 to 10 | C#Cc1cc2cc(-c3cccc(C(=O)NC(C)(C)C#N)n3)cnc2[nH]1 [Compound P-0175, N-(1-cyano-1-methyl-ethyl)-6-(2-ethynyl-1H-pyrrolo[2,3-b]pyridin-5-yl)pyridine-2-carboxamide]
 | 0.0001 to 10 | Cn1cncc1C#Cc1cc2cc(-c3cccc(C(=O)NC(C)(C)C#N)n3)cnc2[nH]1 [Compound P-0177, N-(1-cyano-1-methyl-ethyl)-6-[2-[2-(3-methylimidazol-4-yl)ethynyl]-1H-pyrrolo[2,3-b]pyridin-5-yl]pyridine-2-carboxamide]
 | 0.0001 to 10 | CC(C)(NC(=O)c1cccc(-c2cnc3[nH]c(C4=CCN(C(=O)C5CC5)C4)cc3c2)n1)C(N)=O [Compound P-0179, N-(2-amino-1,1-dimethyl-2-oxo-ethyl)-6-[2-[1-(cyclopropanecarbonyl)-2,5-dihydropyrrol-3-yl]-1H-pyrrolo[2,3-b]pyridin-5-yl]pyridine-2-carboxamide]
 | 0.0001 to 10 | CC(C)(C#N)NC(=O)c1cccc(-c2cnc3[nH]c(-c4ccc(C5CC5)cc4)cc3c2)n1 [Compound P-0189, N-(1-cyano-1-methyl-ethyl)-6-[2-(4-cyclopropylphenyl)-1H-pyrrolo[2,3-b]pyridin-5-yl]pyridine-2-carboxamide]
